Experiments:
[1] = tested on: Human alphaherpesvirus 1; assay: Antiviral activity against Herpes simplex virus 1 at 50 ug/10^5; assay type: functional
[2] = tested on: Human alphaherpesvirus 1; assay: Antiviral activity against Herpes simplex virus 1 at 20 ug/10^5; assay type: functional
[3] = tested on: Rattus norvegicus; assay: Antiinflammatory activity in gamma irradiated rat assessed as reduction in NFkappaB level in liver tissue homogenates at 150 mg/kg, ip administered once daily for 7 consecutive days by ELISA (reference value: 258.33 +/- 4.216 pg/ml); assay type: functional
[4] = tested on: Rattus norvegicus; assay: Antiinflammatory activity in gamma irradiated rat assessed as reduction in serum IL-6 level at 150 mg/kg, ip administered once daily for 7 consecutive days by ELISA (reference value: 103.87 +/- 3.273 pg/ml); assay type: functional
[5] = tested on: Rattus norvegicus; assay: Antiinflammatory activity in gamma irradiated rat assessed as reduction in COX-2 level in liver tissue homogenates at 150 mg/kg, ip administered once daily for 7 consecutive days by ELISA (reference value: 89.50 +/- 2.617 ng/ml); assay type: functional
[6] = tested on: Rattus norvegicus; assay: Antiinflammatory activity in gamma irradiated rat assessed as reduction in serum TNFalpha level at 150 mg/kg, ip administered once daily for 7 consecutive days by ELISA (reference value: 105.07 +/- 3.925 pg/ml); assay type: functional
[7] = tested on: Hepatovirus A; assay: Antiviral activity against Hepatitis A virus infected in HepG2 cells assessed as virus inhibition at 40 ug/L incubated overnight with virus followed by inoculation and measured after 1 hr by crystal violet staining based plaque reduction assay; assay type: functional
[8] = tested on: Escherichia coli; assay: Antibacterial activity against Escherichia coli assessed as zone inhibition at 100 ug/ml; assay type: functional; details: read-out: IZ
[9] = tested on: Staphylococcus aureus; assay: Antibacterial activity against Staphylococcus aureus assessed as zone inhibition at 100 ug/ml; assay type: functional; details: read-out: IZ
[10] = tested on: Bacillus subtilis; assay: Antibacterial activity against Bacillus subtilis assessed as zone inhibition at 100 ug/ml; assay type: functional; details: read-out: IZ
[11] = tested on: Klebsiella pneumoniae; assay: Antibacterial activity against Klebsiella pneumoniae assessed as zone inhibition at 100 ug/ml; assay type: functional; details: read-out: IZ
[12] = tested on: HCT-116; assay: Antiproliferative activity against human HCT116 after 18 hrs by MTT assay; assay type: functional, cell-based; details: HCT-116, 18 h
[13] = species: Homo sapiens; assay: Selectivity ratio of Ki for human A2A receptor expressed in CHO cells to Ki for human A3 receptor expressed in CHO cells; assay type: cell-based
[14] = target: T1, Adenosine receptor A1 (Homo sapiens, UniProt P30542); assay: Displacement of [3H]-CCPA binding from human A1 receptor expressed in CHO cells by radioligand competitive binding assay; assay type: cell-based
T1 sequence (P30542 whole entry): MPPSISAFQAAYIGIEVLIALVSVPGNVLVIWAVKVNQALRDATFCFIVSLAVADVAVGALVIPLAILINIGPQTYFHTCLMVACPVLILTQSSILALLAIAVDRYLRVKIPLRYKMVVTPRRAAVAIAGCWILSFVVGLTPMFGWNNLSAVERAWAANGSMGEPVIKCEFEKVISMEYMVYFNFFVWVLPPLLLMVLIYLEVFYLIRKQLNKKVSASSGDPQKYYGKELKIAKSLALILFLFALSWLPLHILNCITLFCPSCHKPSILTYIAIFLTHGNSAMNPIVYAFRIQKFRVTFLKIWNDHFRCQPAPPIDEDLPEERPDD

[15] = target: T2, Adenosine receptor A3 (Homo sapiens, UniProt P0DMS8); assay: Displacement of [3H]-HEMADO from human A3 receptor expressed in CHO cells by radioligand competitive binding assay; assay type: cell-based
T2 sequence (P0DMS8 whole entry): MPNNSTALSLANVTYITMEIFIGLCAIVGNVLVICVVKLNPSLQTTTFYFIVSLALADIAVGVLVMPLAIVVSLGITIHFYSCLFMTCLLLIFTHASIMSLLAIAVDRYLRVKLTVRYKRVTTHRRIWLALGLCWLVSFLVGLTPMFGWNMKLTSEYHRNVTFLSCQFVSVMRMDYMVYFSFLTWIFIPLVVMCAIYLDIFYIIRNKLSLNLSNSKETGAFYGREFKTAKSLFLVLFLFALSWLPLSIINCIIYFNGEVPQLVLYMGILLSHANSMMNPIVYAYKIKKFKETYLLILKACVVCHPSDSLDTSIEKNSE

[16] = species: Homo sapiens; assay: Selectivity ratio of Ki for human A1 receptor expressed in CHO cells to Ki for human A2A receptor expressed in CHO cells; assay type: cell-based
[17] = species: Homo sapiens; assay: Selectivity ratio of Ki for human A1 receptor expressed in CHO cells to Ki for human A3 receptor expressed in CHO cells; assay type: cell-based
[18] = target: Adenosine receptor A2a (Homo sapiens, UniProt P29274); assay: Displacement of [3H]-NECA from human A2A receptor expressed in CHO cells by radioligand competitive binding assay; assay type: cell-based
[19] = tested on: Staphylococcus aureus; assay: Antibacterial activity against Staphylococcus aureus assessed as zone inhibition at 500 ug/ml by cup plate agar diffusion method; assay type: functional; details: read-out: IZ
[20] = tested on: Escherichia coli; assay: Antibacterial activity against Escherichia coli assessed as zone inhibition at 500 ug/ml by cup plate agar diffusion method; assay type: functional; details: read-out: IZ
[21] = tested on: Pseudomonas aeruginosa; assay: Antibacterial activity against Pseudomonas aeruginosa assessed as zone inhibition at 500 ug/ml by cup plate agar diffusion method; assay type: functional; details: read-out: IZ
[22] = tested on: Bacillus subtilis; assay: Antibacterial activity against Bacillus subtilis assessed as zone inhibition at 500 ug/ml by cup plate agar diffusion method; assay type: functional; details: read-out: IZ
[23] = tested on: Candida albicans; assay: […] activity against Candida albicans assessed as zone inhibition at 500 ug/ml by cup plate agar diffusion method; assay type: functional; details: read-out: IZ
[24] = tested on: Mus musculus; assay: Analgesic activity in Swiss albino mouse assessed as protection against acetic acid-induced writhing at 15 mg/kg, po pretreated for 30 mins followed by acetic acid challenge and measured after 20 mins relative to control; assay type: functional
[25] = Ulcerogenic activity in Sprague-Dawley rat assessed as ulcer index at 20 mg/kg, ip pretreated followed by pylorus ligation and measured at 4 hrs post ligation; assay type: toxicity, organism-based; details: in vivo
[26] = tested on: Rattus norvegicus; assay: Antiinflammatory activity in Sprague-Dawley rat assessed as inhibition of carrageenan-induced edema at 15 mg/kg, po pretreated for 1 hr followed by carrageenan challenge and measured after 4 hrs by mercury plethysmometer relative to control; assay type: functional

Adenosine receptor A2a, sequence (P29274 whole entry, the tested form may be a part): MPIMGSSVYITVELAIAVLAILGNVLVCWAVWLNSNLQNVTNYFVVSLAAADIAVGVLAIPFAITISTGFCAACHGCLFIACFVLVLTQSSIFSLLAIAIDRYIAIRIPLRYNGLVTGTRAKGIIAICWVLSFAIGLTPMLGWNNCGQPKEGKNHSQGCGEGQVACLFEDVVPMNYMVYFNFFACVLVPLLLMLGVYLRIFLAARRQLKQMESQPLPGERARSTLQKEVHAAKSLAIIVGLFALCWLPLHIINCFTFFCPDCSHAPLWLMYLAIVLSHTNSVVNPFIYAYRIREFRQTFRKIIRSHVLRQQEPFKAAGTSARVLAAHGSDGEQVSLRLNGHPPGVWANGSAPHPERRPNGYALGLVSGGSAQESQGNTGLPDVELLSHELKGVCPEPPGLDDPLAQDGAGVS

COCCSc1ncnc2sc3c(c12)-c1ccccc1CC3
Activity [1]: 30% | Activity [2]: 15%

CCOC(=O)c1sc2ncnc(N[C@@H](CCSC)C(=O)O)c2c1C
NFkappaB level in liver tissue [3]: 66.17 pg/mL | Serum IL-6 level [4]: 45.72 pg/mL | COX-2 level in liver homogenate [5]: 28.5 ng/mL | Serum TNFalpha level [6]: 38.5 pg/mL

CC(=O)OC[C@H]1O[C@@H](Sc2nc3sc4c(c3c(=O)n2-c2ccccc2)CCCCC4)[C@H](OC(C)=O)[C@@H](OC(C)=O)[C@@H]1OC(C)=O
inhibition (INH) [7]: 50%

FC(F)(F)Oc1ccc(C2=NOC(c3cc4cncnc4s3)C2)cc1 (configuration not stated)
zone of inhibition at 100 µg/mL [8]: 16.5 mm | zone of inhibition at 100 µg/mL [9]: 14.5 mm | zone of inhibition at 100 µg/mL [10]: 12.5 mm | zone of inhibition at 100 µg/mL [11]: 15 mm

CC(=O)OC[C@H]1O[C@@H](Sc2nc3sc4c(c3c(=O)n2C)CCCCC4)[C@H](OC(C)=O)[C@@H](OC(C)=O)[C@@H]1OC(C)=O
inhibition (INH) [7]: 50%

CCc1cc2c(OCc3cc(-c4ccc(OC)cc4)no3)ncnc2s1
IC50 [12]: 112 µM

CC(=O)OC[C@H]1O[C@@H](Sc2nc3sc4c(c3c(=O)n2Cc2ccccc2)CCCCC4)[C@H](OC(C)=O)[C@@H](OC(C)=O)[C@@H]1OC(C)=O
inhibition (INH) [7]: 55%

CC(=O)Nc1nc2sc3c(c2c(=O)[nH]1)CCC3
Ratio Ki [13]: > 22 | Ki [14]: > 100 µM | Ki [15]: 1.35 µM | Ratio Ki [16]: > 3.3 | Ratio Ki [17]: > 74 | Ki [18]: > 30 µM

NC12CC3CC(CC(C3)C1)C2 [AMANTADINE]
inhibition (INH) [7]: 55%

FC(F)(F)c1ccc(C2=NOC(c3cc4cncnc4s3)C2)cc1 (configuration not stated)
zone of inhibition at 100 µg/mL [8]: 17 mm | zone of inhibition at 100 µg/mL [9]: 15 mm | zone of inhibition at 100 µg/mL [10]: 13 mm | zone of inhibition at 100 µg/mL [11]: 16.5 mm

c1cnc(C2=NOC(c3cc4cncnc4s3)C2)cn1 (configuration not stated)
zone of inhibition at 100 µg/mL [8]: 13 mm | zone of inhibition at 100 µg/mL [9]: 11.5 mm | zone of inhibition at 100 µg/mL [10]: 11 mm | zone of inhibition at 100 µg/mL [11]: 12.5 mm

CCOC(=O)c1sc2ncnc(NCC(=O)O)c2c1C
NFkappaB level in liver tissue [3]: 89.83 pg/mL | Serum IL-6 level [4]: 46.53 pg/mL | COX-2 level in liver homogenate [5]: 31.17 ng/mL | Serum TNFalpha level [6]: 48.32 pg/mL

CC(=O)Nc1nc2sc(C)c(C)c2c(=O)[nH]1
Ratio Ki [13]: > 57 | Ki [14]: > 30 µM | Ki [15]: 0.524 µM | Ratio Ki [16]: > 1 | Ratio Ki [17]: > 57 | Ki [18]: > 30 µM

FC(F)(F)c1ccc(C2=Nc3ccccc3SC(c3cc4cncnc4s3)C2)cc1 (configuration not stated)
zone of inhibition at 500 µg/mL [19]: 17 mm | zone of inhibition at 500 µg/mL [20]: 16.2 mm | zone of inhibition at 500 µg/mL [21]: 16.1 mm | zone of inhibition at 500 µg/mL [22]: 18.8 mm | zone of inhibition at 500 µg/mL [23]: 16 mm

CC(=O)c1nn(-c2ccc(Cl)cc2)c2nc3sc(-c4ccccc4)c(C)c3c(=O)n12
Activity [24]: 35% | UI [25]: 0.9 | inhibition in vivo at 15 mg/kg [26]: 74.5%

FC(F)(F)Oc1ccc(C2=Nc3ccccc3SC(c3cc4cncnc4s3)C2)cc1 (configuration not stated)
zone of inhibition at 500 µg/mL [19]: 15.1 mm | zone of inhibition at 500 µg/mL [20]: 12.3 mm | zone of inhibition at 500 µg/mL [21]: 13.2 mm | zone of inhibition at 500 µg/mL [22]: 15.3 mm | zone of inhibition at 500 µg/mL [23]: 10.6 mm

CC(=O)OC[C@H]1O[C@@H](Sc2nc3sc4c(c3c(=O)n2CCO)CCCCC4)[C@H](OC(C)=O)[C@@H](OC(C)=O)[C@@H]1OC(C)=O
inhibition (INH) [7]: 65%

c1csc(C2=Nc3ccccc3SC(c3cc4cncnc4s3)C2)c1 (configuration not stated)
zone of inhibition at 500 µg/mL [19]: 19.2 mm | zone of inhibition at 500 µg/mL [20]: 19.4 mm | zone of inhibition at 500 µg/mL [21]: 19.4 mm | zone of inhibition at 500 µg/mL [22]: 19.4 mm | zone of inhibition at 500 µg/mL [23]: 19.6 mm

CC1(C)S[C@@H]2[C@H](NC(=O)[C@H](N)c3ccc(O)cc3)C(=O)N2[C@H]1C(=O)O [AMOXICILLIN]
zone of inhibition at 100 µg/mL [8]: 19.5 mm | zone of inhibition at 100 µg/mL [9]: 17.6 mm | zone of inhibition at 100 µg/mL [10]: 15.5 mm | zone of inhibition at 100 µg/mL [11]: 18 mm

Cc1sc2nc(NC(=O)c3ccccc3)[nH]c(=O)c2c1C
Ratio Ki [13]: 5.24 | Ki [14]: > 30 µM | Ki [15]: 0.124 µM | Ratio Ki [16]: > 46 | Ratio Ki [17]: > 240 | Ki [18]: 0.65 µM

Cc1c(-c2ccccc2)sc2nc3n(-c4ccccc4)nc(-c4ccccc4)n3c(=O)c12
Activity [24]: 52% | UI [25]: 1.1 | inhibition in vivo at 15 mg/kg [26]: 74.6%

Cc1sc2nc(N)nc(-n3cncn3)c2c1C
Ratio Ki [13]: > 0.19 | Ki [14]: 40.8 µM | Ki [15]: > 30 µM | Ratio Ki [16]: 7.2 | Ratio Ki [17]: > 1.4 | Ki [18]: 5.69 µM

Nc1nc2c(ncn2COCCO)c(=O)[nH]1 [ACYCLOVIR]
Activity [2]: 100%

Nc1nc(-n2ccnc2)c2c3c(sc2n1)CCCC3
Ratio Ki [13]: > 0.14 | Ki [14]: 10.4 µM | Ki [15]: > 30 µM | Ratio Ki [16]: 2.6 | Ratio Ki [17]: > 0.35 | Ki [18]: 4.06 µM

CCOC(=O)c1sc2ncnc(N[C@@H](CC(=O)O)C(=O)O)c2c1C
NFkappaB level in liver tissue [3]: 88.17 pg/mL | Serum IL-6 level [4]: 59.85 pg/mL | COX-2 level in liver homogenate [5]: 40.5 ng/mL | Serum TNFalpha level [6]: 51.35 pg/mL

c1csc(C2=NOC(c3cc4cncnc4s3)C2)c1 (configuration not stated)
zone of inhibition at 100 µg/mL [8]: 15.5 mm | zone of inhibition at 100 µg/mL [9]: 12.5 mm | zone of inhibition at 100 µg/mL [10]: 11.5 mm | zone of inhibition at 100 µg/mL [11]: 14.5 mm

CC(=O)Cc1c(C(C)C)sc2nc(S)[nH]c(=S)c12
Activity [24]: 60% | UI [25]: 1.1 | inhibition in vivo at 15 mg/kg [26]: 71.6%

CC(=O)Cc1c(C(C)C)sc2nc(C)[nH]c(=O)c12
Activity [24]: 59% | UI [25]: 1.1 | inhibition in vivo at 15 mg/kg [26]: 74.5%

CCOC(=O)c1sc2ncnc(Cl)c2c1C
NFkappaB level in liver tissue [3]: 138.17 pg/mL | Serum IL-6 level [4]: 50.1 pg/mL | COX-2 level in liver homogenate [5]: 36.33 ng/mL | Serum TNFalpha level [6]: 41.53 pg/mL

From ChEMBL document CHEMBL4342407, “Thieno[2,3-d]pyrimidine as a promising scaffold in medicinal chemistry: Recent advances” (Bioorg Med Chem, 2019)
